This is an account of results in patent US10392379B2, “Hepatitis B core protein modulators” (Assembly Biosciences, Inc., priority 2015, dated 2019).

Data set [1] concerns AD38 cells. As to the kind of experiment: Viability of AD38 cells (Promega CellTiter-Glo). The class given is cell-based. The following applies: 10 μM compound, 6 days, DMSO controls = 100%. On the procedure:
(§1) AD38 cells were then re-suspended with 10 mL of Treatment Medium and counted. Wells of a collagen coated 96-well NUNC microtiter plate were seeded at 50,000/well in 180 μL of Treatment Medium, and 20 μL of in treatment media with either 10% DMSO (Control) or a 10× solution of compound in 10% DMSO was added. Plates were incubated for 6 days at 37° C.
At the end of compound treatment period cell viability was assessed using a Promega CellTiter-Glo protocol. All supernatant was removed the previously treated 96-well microtiter plate, and 50 μL Tetracycline-free treatment medium (DMEM/F12 (1:1), 1× Pen/step (cat#: 30-002-CL, Mediatech, Inc), with 2% FBS, Tet-system approved (cat#: 631106, Clontech), and 1% DMSO was added back to each well. Another 50 μL of CellTiter-Glo reagent solution (Promega, G7573) was then added at room temperature and the contents mixed for 2 minutes on an orbital shaker to induce cell lysis. This was followed by incubation at room temperature for 10 minutes to stabilize the luminescent signal. The luminescence was recorded for 0.2 seconds per well on a Tecan multimode platereader (Infinite M1000 pro). The luminescent signal from each well was normalized against that of untreated (DMSO) control wells. All results in Table 3 were reported with percent viability (with controls being 100%).
On the technique in general: Cellular ATP, detected with luciferase, serves as a proxy for viable cell number.

The test system of data set [2] is HBV. The data set can be described thus: Viral load production in AD38 cells by quantitative PCR of the core sequence. The class given is cell-based. The following applies: Hepatitis B virus, 144 h, 10 μM compound, 6 days, supernatant qPCR, relative to DMSO control, read-out: AD38 Viral Load (%) (VL with cmpd/VL in DMSO control) at 10 μM. On the procedure:
as §1
Viral load production was assayed by quantitative PCR of the core sequence. […] The PCR mixture was incubated at 45° C. for 5 minutes, then 95° C. for 10 min, followed by 40 cycles of 10 seconds at 95° C. and 20 seconds at 60° C. Viral load was quantitated against known standards by using ViiA™ 7 Software. Viral load in the supernatant from wells with treated cells were compared against viral load in supernatant from DMSO control wells (≥3 per plate).
In general terms: Real-time PCR tracks product formation cycle by cycle.

For the compound `Cc1cc2c(cc1C(=O)NCc1cncnc1)NC(=O)c1ccccc1S2` [Compound 495], the “AD38 Viability Normalized Result (cmpd/DMSO %) at 10 μM” value in data set [1] worked out at 96%. For the same compound, the activity at 10 µM in data set [2] came to 23.1%.
Take `Cc1cc2c(cc1C(=O)NCc1cccnc1)NC(=O)c1ccccc1S2` [Compound 497]: in data set [1], the “AD38 Viability Normalized Result (cmpd/DMSO %) at 10 μM” value worked out at 97%. Moreover, the activity at 10 µM in data set [2] came out at 38.7%.
For the compound `O=C(NCc1cncnc1)c1ccc2c(c1)NC(=O)c1ccccc1N2` [Compound 504], the “AD38 Viability Normalized Result (cmpd/DMSO %) at 10 μM” value in data set [1] came to 101%. For the same compound, the activity at 10 µM in data set [2] is 62.9%.
`O=C(NCCc1ccccn1)c1ccc2c(c1)NC(=O)c1ccccc1N2` [Compound 505]: the “AD38 Viability Normalized Result (cmpd/DMSO %) at 10 μM” value in data set [1] was 103%. For the same compound, the activity at 10 µM in data set [2] is 48.2%.
`O=C(NCCc1cccnc1)c1ccc2c(c1)NC(=O)c1ccccc1N2` [Compound 506]: the “AD38 Viability Normalized Result (cmpd/DMSO %) at 10 μM” value in data set [1] was 100%. The activity at 10 µM in data set [2] amounted to 31.6%.
On to `O=C(NCc1cccnc1)c1ccc2c(c1)NC(=O)c1ccccc1N2` [Compound 507], for which, in data set [1], the “AD38 Viability Normalized Result (cmpd/DMSO %) at 10 μM” value was 103%. Also, in data set [2], the activity at 10 µM is 51.9%.
On the same counts, the results for `O=C(NCc1cncnc1)c1ccc2c(c1)NC(=O)c1cc(Cl)ccc1S2` [Compound 539] are 0% and 0.2%.
Consider `O=C(NCc1cccnc1)c1ccc2c(c1)NC(=O)c1cc(Cl)ccc1S2` [Compound 540], for which the “AD38 Viability Normalized Result (cmpd/DMSO %) at 10 μM” value in data set [1] worked out at 52%. Moreover, the activity at 10 µM in data set [2] stood at 0.6%.
In the case of `O=C(NCc1cncnc1)c1ccc2c(c1)NC(=O)c1ccc(Cl)cc1S2` [Compound 542], the “AD38 Viability Normalized Result (cmpd/DMSO %) at 10 μM” value in data set [1] came out at 106%. Further, the activity at 10 µM in data set [2] was determined as 1.6%.
In the case of `O=C(NCc1cccnc1)c1ccc2c(c1)NC(=O)c1ccc(Cl)cc1S2` [Compound 543], the “AD38 Viability Normalized Result (cmpd/DMSO %) at 10 μM” value in data set [1] is 24%. In data set [2], the activity at 10 µM is 1.2%.
Regarding `CC1c2ccc(C(=O)NCc3cncnc3)cc2NC(=O)c2ccccc21` (stereo not shown) [Compound 545], in data set [1], the “AD38 Viability Normalized Result (cmpd/DMSO %) at 10 μM” value is reported as 95%. Also, the activity at 10 µM in data set [2] was 1.4%.
With `CC1c2ccc(C(=O)NCc3cccnc3)cc2NC(=O)c2ccccc21` (stereo not shown) [Compound 547], the “AD38 Viability Normalized Result (cmpd/DMSO %) at 10 μM” value in data set [1] is 99%. Moreover, the activity at 10 µM in data set [2] turned out to be 1.5%.
On the same counts, the results for `O=C(NCc1nnc(-c2ccc(O)cc2)s1)c1ccc2c(c1)NC(=O)c1ccccc1O2` [Compound 739] are 108% and 62.2%.
Turning to `O=C(NCc1ccc(-c2ccc(O)cc2)nc1)c1ccc2c(c1)NC(=O)c1ccccc1S2(=O)=O` [Compound 778], the “AD38 Viability Normalized Result (cmpd/DMSO %) at 10 μM” value in data set [1] is 104%. The activity at 10 µM in data set [2] was 3.2%.
On the same counts, the results for `O=C(NCc1ccc(-c2ccc3[nH]ccc3c2)nc1)c1ccc2c(c1)NC(=O)c1ccccc1S2(=O)=O` [Compound 779] are 87% and 0.5%.
As to `O=C(NCc1ccc(-c2ccc3[nH]ncc3c2)nc1)c1ccc2c(c1)NC(=O)c1ccccc1S2(=O)=O` [Compound 780], in data set [1], the “AD38 Viability Normalized Result (cmpd/DMSO %) at 10 μM” value is on record as 106%. In data set [2], the activity at 10 µM worked out at 1.8%.
With `O=C(NCc1ccc(-c2ccc3[nH]cnc3c2)nc1)c1ccc2c(c1)NC(=O)c1ccccc1S2(=O)=O` [Compound 781], the “AD38 Viability Normalized Result (cmpd/DMSO %) at 10 μM” value in data set [1] came to 102%. The activity at 10 µM in data set [2] is 7.3%.
As for `Nc1ncc(-c2ccc(CNC(=O)c3ccc4c(c3)NC(=O)c3ccccc3S4(=O)=O)cn2)cn1` [Compound 782], in data set [1], the “AD38 Viability Normalized Result (cmpd/DMSO %) at 10 μM” value worked out at 108%. For the same compound, the activity at 10 µM in data set [2] amounted to 25.4%.
On to `O=C(NCc1ccc(-c2ccc(O)cc2Cl)nc1)c1ccc2c(c1)NC(=O)c1ccccc1S2(=O)=O` [Compound 783], for which, in data set [1], the “AD38 Viability Normalized Result (cmpd/DMSO %) at 10 μM” value is on record as 105%. Besides, in data set [2], the activity at 10 µM is 6.3%.
On the same counts, the results for `O=C(NCc1ccc(-c2ccc(O)c(Cl)c2)nc1)c1ccc2c(c1)NC(=O)c1ccccc1S2(=O)=O` [Compound 784] are 103% and 137%.
In the case of `O=C(NCc1ccc(-c2ccc(O)cc2F)nc1)c1ccc2c(c1)NC(=O)c1ccccc1S2(=O)=O` [Compound 785], in data set [1], the “AD38 Viability Normalized Result (cmpd/DMSO %) at 10 μM” value came to 94%. The activity at 10 µM in data set [2] was 2.1%.
Regarding `O=C(NCc1ccc(-c2ccc(O)c(F)c2)nc1)c1ccc2c(c1)NC(=O)c1ccccc1S2(=O)=O` [Compound 786], the “AD38 Viability Normalized Result (cmpd/DMSO %) at 10 μM” value in data set [1] came out at 105%. In addition, the activity at 10 µM in data set [2] is 5%.
As for `O=C(NCc1ccc(-c2cc(F)c(O)c(F)c2)nc1)c1ccc2c(c1)NC(=O)c1ccccc1S2(=O)=O` [Compound 787], the “AD38 Viability Normalized Result (cmpd/DMSO %) at 10 μM” value in data set [1] was 100%. In data set [2], the activity at 10 µM was 15.5%.
Turning to `O=C(NCc1cnc(-c2ccc(O)cc2)nc1)c1ccc2c(c1)NC(=O)c1ccccc1S2(=O)=O` [Compound 788], the “AD38 Viability Normalized Result (cmpd/DMSO %) at 10 μM” value in data set [1] was determined as 111%. For the same compound, in data set [2], the activity at 10 µM is 1.9%.
As to `O=C(NCc1cnc(-c2ccc3[nH]ccc3c2)nc1)c1ccc2c(c1)NC(=O)c1ccccc1S2(=O)=O` [Compound 789], in data set [1], the “AD38 Viability Normalized Result (cmpd/DMSO %) at 10 μM” value was 108%. In addition, the activity at 10 µM in data set [2] came out at 0.4%.
With `O=C(NCc1cnc(-c2ccc3[nH]ncc3c2)nc1)c1ccc2c(c1)NC(=O)c1ccccc1S2(=O)=O` [Compound 790], in data set [1], the “AD38 Viability Normalized Result (cmpd/DMSO %) at 10 μM” value is 103%. The activity at 10 µM in data set [2] came to 1.7%.
On the same counts, the results for `O=C(NCc1cnc(-c2ccc3[nH]cnc3c2)nc1)c1ccc2c(c1)NC(=O)c1ccccc1S2(=O)=O` [Compound 791] are 100% and 2.2%.
On the same counts, the results for `Nc1ncc(-c2ncc(CNC(=O)c3ccc4c(c3)NC(=O)c3ccccc3S4(=O)=O)cn2)cn1` [Compound 792] are 105% and 23.1%.
With `O=C(NCc1cnc(-c2ccc(O)cc2Cl)nc1)c1ccc2c(c1)NC(=O)c1ccccc1S2(=O)=O` [Compound 793], the “AD38 Viability Normalized Result (cmpd/DMSO %) at 10 μM” value in data set [1] is 103%. Further, the activity at 10 µM in data set [2] amounted to 3.5%.
Take `O=C(NCc1cnc(-c2ccc(O)c(Cl)c2)nc1)c1ccc2c(c1)NC(=O)c1ccccc1S2(=O)=O` [Compound 794]: the “AD38 Viability Normalized Result (cmpd/DMSO %) at 10 μM” value in data set [1] is 104%. Besides, the activity at 10 µM in data set [2] was 1.3%.
For `O=C(NCc1cnc(-c2ccc(O)cc2F)nc1)c1ccc2c(c1)NC(=O)c1ccccc1S2(=O)=O` [Compound 795], in data set [1], the “AD38 Viability Normalized Result (cmpd/DMSO %) at 10 μM” value is given as 106%. Further, the activity at 10 µM in data set [2] was found to be 6.4%.
As to `O=C(NCc1cnc(-c2ccc(O)c(F)c2)nc1)c1ccc2c(c1)NC(=O)c1ccccc1S2(=O)=O` [Compound 796], the “AD38 Viability Normalized Result (cmpd/DMSO %) at 10 μM” value in data set [1] turned out to be 111%. In data set [2], the activity at 10 µM turned out to be 1.4%.
On to `O=C(NCc1nnc(-c2ccc(O)cc2)s1)c1ccc2c(c1)NC(=O)c1ccccc1S2(=O)=O` [Compound 807], for which the “AD38 Viability Normalized Result (cmpd/DMSO %) at 10 μM” value in data set [1] is 96%. Moreover, the activity at 10 µM in data set [2] was 0.9%.
On to `O=C(NCc1ccc(Cc2ccc(O)cc2)nc1)c1ccc2c(c1)NC(=O)c1ccccc1S2(=O)=O` [Compound 825, N-((6-(4-hydroxybenzyl)pyridin-3-yl)methyl)-11-oxo-10,11-dihydrodibenzo[b,f][1,4]thiazepine-8-carboxamide 5,5-dioxide], for which the “AD38 Viability Normalized Result (cmpd/DMSO %) at 10 μM” value in data set [1] was determined as 90%. Also, the activity at 10 µM in data set [2] was found to be 6.6%.
As to `COc1ccc(Cc2ccc(CNC(=O)c3ccc4c(c3)NC(=O)c3ccccc3S4(=O)=O)cn2)cc1` [Compound 825-A, N-((6-(4-methoxybenzyl)pyridin-3-yl)methyl)-11-oxo-10, 11-dihydrodibenzo[b,f][1,4]thiazepine-8-carboxamide 5,5-dioxide], the “AD38 Viability Normalized Result (cmpd/DMSO %) at 10 μM” value in data set [1] is listed as 58%. Besides, the activity at 10 µM in data set [2] was 6.2%.
Turning to `O=C(NCc1ccc(Cc2ccc(O)cc2)nc1)c1ccc2c(c1)NC(=O)c1ccccc1O2` [Compound 837, N-((6-(4-hydroxybenzyl)pyridin-3-yl)methyl)-11-oxo-10,11-dihydrodibenzo[b,f][1,4]oxazepine-8-carboxamide], in data set [1], the “AD38 Viability Normalized Result (cmpd/DMSO %) at 10 μM” value was found to be 108%. In data set [2], the activity at 10 µM worked out at 0.9%.
With `COc1ccc(Cc2ccc(CNC(=O)c3ccc4c(c3)NC(=O)c3ccccc3O4)cn2)cc1` [Compound 837-A, N-((6-(4-methoxybenzyl)pyridin-3-yl)methyl)-11-oxo-10, 11-dihydrodibenzo[b,f][1, 4]oxazepine-8-carboxamide], the “AD38 Viability Normalized Result (cmpd/DMSO %) at 10 μM” value in data set [1] was 105%. Further, the activity at 10 µM in data set [2] worked out at 5.6%.
As to `O=C(NCc1ccc(-c2ccccc2CO)nc1)c1ccc2c(c1)NC(=O)c1ccccc1S2(=O)=O` [Compound 843], in data set [1], the “AD38 Viability Normalized Result (cmpd/DMSO %) at 10 μM” value stood at 103%. For the same compound, the activity at 10 µM in data set [2] amounted to 18.8%.
